Source: paper PMC8921064 (Archives of Toxicology, 2022)

Experiments:
[1] = tested on: human liver microsomes (HLM); test: Human liver microsomal incubation, metabolite formation quantified by UPLC; conditions: HLM
Protocol: (§1) The incubation mixtures were prepared and incubated in glass vials to avoid plastic binding of the substrates. The glass vials were capped to prevent substrate loss due to volatility. After preincubation of the incubation mixture at 37 °C for 1 min, the enzymatic reaction was initiated by adding microsomes to the incubation mixture which was subsequently incubated at 37 °C for 20 min. The reaction was terminated by adding 100 µl ice-cold acetonitrile followed by vortexing. After 5 min centrifugation at 5000 rpm (4000 × g), 4 °C, the supernatant was collected for ultraperformance liquid chromatography (UPLC) analysis. […] Therefore, a diisopropylether (DIPE) extraction of the metabolites was performed after the reaction was stopped by the addition of 20 µl 10% HClO4. To this end, the incubation mixture (total volume of 220 µl) was extracted three times with 1 ml DIPE. Each time, the upper organic layer was collected and the DIPE was subsequently evaporated from the combined organic fractions with a gentle stream of nitrogen. The residues were dissolved in 100 µl methanol and analyzed by UPLC.
(§2) The metabolites formed were analyzed and quantified using an Acquity UPLC system equipped with a photodiode array (PDA) detector (Waters, Milford, MA). The metabolites and their parent compound were separated on a reverse phase Acquity UPLC® BEH C18 column ([…], 1.7 µm, Waters, Milford, MA) and detected at wavelengths ranging from 190 to 400 nm. Eluent A was nano-pure water containing 0.1% trifluoroacetic acid (v/v), and eluent B was acetonitrile containing 0.1% trifluoroacetic acid (v/v). The gradient elution started from 90% A and 10% B applied from 0.0 min to 0.5 min, which was changed to 0% A and 100% B from 0.5 to 15.5 min and then kept at 0% A and 100% B from 15.5 min to 18.5 min, changed back to 90% A and 10% B from 18.5 to 18.6 min and then maintained at the starting conditions from 18.6 min until 22 min. The total run time was 22 min using a flow rate of 0.6 ml/min. The temperature of the column was set at 40 °C and that of the autosampler at 10 °C during the UPLC analysis. The injection volume was 3.5 µl. Metabolites were quantified using their peak area at the wavelength specified in Table 1, using calibration curves of available reference compounds. Metabolites were identified by comparing their retention time (RT) and UV spectrum to those of reference chemicals on UPLC. When reference chemicals were not available, metabolite identification by gas chromatography-triple quadrupole mass spectrometry (GC–MS/MS) was performed. The minor metabolites were identified by elution time and mass spectra both on UPLC and GC–MS/MS, and by comparison with available elution and spectral information from the literature.
(§3) The metabolite concentrations in the microsomal incubation mixtures as quantified by UPLC were used to calculate the rate of the enzymatic conversions in pmol/min/mg microsomal protein. The kinetic parameters KM and Vmax were obtained using a nonlinear regression curve fit applying the Michaelis Menten equation in GraphPad Prism 5 (San Diego, USA). To compare the catalytic efficiency of formation of the different metabolites the intrinsic clearance (Clint) was calculated as Vmax divided by KM.

[2] = tested on: rat liver microsomes (RLM); test: Rat liver microsomal incubation, metabolite formation quantified by UPLC; conditions: RLM
Protocol: as §1, §2, §3

[3] = tested on: Salmonella typhimurium TA98; test: Reverse mutation assay (Ames test), TA98; conditions: for Increase in the number of revertants compared to the concurrent solvent control: TA98, presence of 5% S9-mix, 10–100 µg; for Mutagenicity (conclusion): TA98, positive if more than threefold over control; for His + revertant colonies TA98 without S9-mix: mean ± SD of 3 plates
Protocol: Six concentrations of each compound were tested in triplicate in the absence and presence of 5% (v/v) S9-mix prepared from the livers of Aroclor 1254 treated Sprague–Dawley rats. The S9-mix contained 4 mM NADP, 5.8 mM glucose-6-phosphate, 0.1 M sodium phosphate pH 7.4, 8 mM MgCl2, 33 mM KCl and 5% S9 homogenate. Fresh bacterial cultures were prepared overnight to reach 10^9 cells/ml. The following solutions were pre-incubated in a rotating incubator at 70 rpm and 37 °C, and contained either 0.5 ml S9-mix (in case of S9 presence) or 0.5 ml 0.1 M potassium phosphate pH 7.4 (in case of S9 absence), 0.1 ml of a fresh bacterial culture (10^9 cells/ml) of TA98 or TA100, […] Top agar was melted and heated to 45 °C. After preincubation, the substrate solutions were added to 3 ml of the molten top agar and mixed by vortexing and the top agar mixture was poured onto a minimal glucose agar plate. After solidification of the top agar, the plates were incubated at 37 °C for 48 h. The number of revertant colonies per plate was automatically counted with the Instem Sorcerer Colony Counter (Staffordshire, UK). In the absence of S9-mix, 2-nitrofluorene (NF) and methylmethanesulfonate (MMS) were tested as positive controls for incubations with TA98 and TA100, respectively. In the presence of S9-mix, 2-aminoanthracene (2AA) was tested as a positive control in both TA98 and TA100. DMSO was tested as a solvent control in both tester strains.

[4] = tested on: Salmonella typhimurium TA100; test: Reverse mutation assay (Ames test), TA100; conditions: for His + revertant colonies TA100 without S9-mix: mean ± SD of 3 plates; for Cytotoxicity at the test doses: TA100, absence of S9 mix; for Increase in the number of revertants compared to the concurrent solvent control: TA100, presence of 5% S9-mix, 10–100 µg; for Mutagenicity (conclusion): TA100, positive if more than twofold over control
Protocol: Six concentrations of each compound were tested in triplicate in the absence and presence of 5% (v/v) S9-mix prepared from the livers of Aroclor 1254 treated Sprague–Dawley rats. The S9-mix contained 4 mM NADP, 5.8 mM glucose-6-phosphate, 0.1 M sodium phosphate pH 7.4, 8 mM MgCl2, 33 mM KCl and 5% S9 homogenate. Fresh bacterial cultures were prepared overnight to reach 10^9 cells/ml. The following solutions were pre-incubated in a rotating incubator at 70 rpm and 37 °C, and contained either 0.5 ml S9-mix (in case of S9 presence) or 0.5 ml 0.1 M potassium phosphate pH 7.4 (in case of S9 absence), 0.1 ml of a fresh bacterial culture (10^9 cells/ml) of TA98 or TA100, and 10–100 µg test compound. Top agar was melted and heated to 45 °C. After preincubation, the substrate solutions were added to 3 ml of the molten top agar and mixed by vortexing and the top agar mixture was poured onto a minimal glucose agar plate. After solidification of the top agar, the plates were incubated at 37 °C for 48 h. The number of revertant colonies per plate was automatically counted with the Instem Sorcerer Colony Counter (Staffordshire, UK). In the absence of S9-mix, 2-nitrofluorene (NF) and methylmethanesulfonate (MMS) were tested as positive controls for incubations with TA98 and TA100, respectively. In the presence of S9-mix, 2-aminoanthracene (2AA) was tested as a positive control in both TA98 and TA100. DMSO was tested as a solvent control in both tester strains.

mouse skin = tested on: mouse skin; set-up: method as in Buening et al. [1979]; LaVoie et al. [1981]; conditions: mouse skin painting; ref Buening et al. [1979]; LaVoie et al. [1981]; cited from earlier work
S. typhimurium TA98 = conditions: ref LaVoie et al. [1983]; cited from earlier work
S. typhimurium TA100 = conditions: ref LaVoie et al. [1983]; cited from earlier work

SMILES: Cc1cc2ccccc2c2ccccc12 [9-Methylphenanthrene]
- Vmax, formation of 1,2-Dihydro-9-methylphenanthrene-diol RT = 4.27 min ([1]; substrate 9-Methylphenanthrene): 15.6 ± 2.4 pmol/min/mg microsomal protein
- Vmax, formation of 3,4-Dihydro-9-methylphenanthrene-diol RT = 2.98 min ([1]; substrate 9-Methylphenanthrene): 26.1 ± 3.0 pmol/min/mg microsomal protein
- Vmax, formation of 9-(Hydroxymethyl)-phenanthrene RT = 5.6 min ([1]; substrate 9-Methylphenanthrene): 415.9 ± 43.9 pmol/min/mg microsomal protein
- Vmax, formation of 9-Methylphenanthrol RT = 6.28 min ([1]; substrate 9-Methylphenanthrene): 27.8 ± 6.7 pmol/min/mg microsomal protein
- Vmax, formation of 9-Methylphenanthrol RT = 6.73 min ([1]; substrate 9-Methylphenanthrene): 44.9 ± 19.4 pmol/min/mg microsomal protein
- Vmax, formation of 9-(Hydroxymethyl)-phenanthrene RT = 5.6 min ([2]; substrate 9-Methylphenanthrene): 1543 ± 226.6 pmol/min/mg microsomal protein
- Vmax, formation of 9-Methylphenanthrol RT = 6.73 min ([2]; substrate 9-Methylphenanthrene): 27.2 ± 5.1 pmol/min/mg microsomal protein
- Vmax, formation of 9-Methylphenanthrol RT = 6.87 min ([2]; substrate 9-Methylphenanthrene): 124.2 ± 29.2 pmol/min/mg microsomal protein
- Vmax, formation of 9-Methylphenanthrol RT = 7.2 min ([2]; substrate 9-Methylphenanthrene): 41.4 ± 23.4 pmol/min/mg microsomal protein
- Vmax, formation of 9-Methylphenanthrol RT = 7.25 min ([2]; substrate 9-Methylphenanthrene): 10.2 ± 1.9 pmol/min/mg microsomal protein
- Increase in the number of revertants compared to the concurrent solvent control [3]: 2.5 fold
- Increase in the number of revertants relative to the historical control data ([3]; TA98, presence of S9-mix): 3.2 fold
- Mutagenicity (conclusion) [3]: indicative of mutagenicity
- His + revertant colonies TA100 without S9-mix ([4]; 2 µg/plate): 121±7
- His + revertant colonies TA100 without S9-mix ([4]; 4 µg/plate): 109±3
- His + revertant colonies TA100 without S9-mix ([4]; 10 µg/plate): 105±11
- His + revertant colonies TA100 without S9-mix ([4]; 20 µg/plate): 97±20
- His + revertant colonies TA100 without S9-mix ([4]; 40 µg/plate): 59±40
- Cytotoxicity at the test doses [4]: showed cytotoxicity
- Increase in the number of revertants compared to the concurrent solvent control [4]: 1.9 fold
- Increase in the number of revertants relative to the historical control data ([4]; TA100, presence of S9-mix): 2.0 fold
- Mutagenicity (conclusion) [4]: indicative of mutagenicity
- Tumor-initiating activity (mouse skin): neither phenanthrene nor its monomethylated analogs
- Increase in revertants (S. typhimurium TA98): 1.3 fold
- Increase in revertants (S. typhimurium TA100): 3.0 fold

SMILES: Cc1ccc2c(ccc3ccccc32)c1 [2-Methylphenanthrene]
- Vmax, formation of 2-(Hydroxymethyl)-phennathrene RT = 5.59 min ([1]; substrate 2-Methylphenanthrene): 562.0 ± 27.5 pmol/min/mg microsomal protein
- Vmax, formation of 2-Methylphenanthrol RT = 6.12 min ([1]; substrate 2-Methylphenanthrene): 16.3 ± 0.8 pmol/min/mg microsomal protein
- Vmax, formation of Dihydro-2-methylphenanthrene-diol RT = 3.09 min ([1]; substrate 2-Methylphenanthrene): 6.4 ± 0.5 pmol/min/mg microsomal protein
- Vmax, formation of 2-(Hydroxymethyl)-phennathrene RT = 5.59 min ([2]; substrate 2-Methylphenanthrene): 2174 ± 115.3 pmol/min/mg microsomal protein
- Vmax, formation of 2-Methylphenanthrol RT = 6.98 min ([2]; substrate 2-Methylphenanthrene): 76.0 ± 3.1 pmol/min/mg microsomal protein
- Vmax, formation of 2-Methylphenanthrol RT = 7.08 min ([2]; substrate 2-Methylphenanthrene): 11.2 ± 0.9 pmol/min/mg microsomal protein
- Vmax, formation of Dihydro-2-methylphenanthrene-diol RT = 4.26 min ([2]; substrate 2-Methylphenanthrene): 23.1 ± 2.7 pmol/min/mg microsomal protein
- Vmax, formation of Dihydro-2-methylphenanthrene-diol RT = 4.42 min ([2]; substrate 2-Methylphenanthrene): 16.2 ± 2.5 pmol/min/mg microsomal protein
- Vmax, formation of 2-Methylphenanthrol RT = 6.12 min ([2]; substrate 2-Methylphenanthrene, KM NA): 90.7 ± 3.8 pmol/min/mg microsomal protein
- Increase in the number of revertants compared to the concurrent solvent control [3]: 2.2 fold
- Mutagenicity (conclusion) [3]: non-mutagenic
- His + revertant colonies TA100 without S9-mix ([4]; 10 µg/plate): 106±20
- His + revertant colonies TA100 without S9-mix ([4]; 20 µg/plate): 98±13
- His + revertant colonies TA100 without S9-mix ([4]; 40 µg/plate): 70±8
- Cytotoxicity at the test doses [4]: showed cytotoxicity
- Increase in the number of revertants compared to the concurrent solvent control [4]: no increased response was found
- Mutagenicity (conclusion) [4]: non-mutagenic
- Tumor-initiating activity (mouse skin): neither phenanthrene nor its monomethylated analogs

SMILES: Cc1ccc2ccc3ccccc3c2c1 [3-Methylphenanthrene]
- Vmax, formation of 3-(Hydroxymethyl)-phenanthrene RT = 5.62 min ([1]; substrate 3-Methylphenanthrene): 583.8 ± 19.6 pmol/min/mg microsomal protein
- Vmax, formation of Dihydro-3-methylphenanthrene-diol RT = 4.25 min ([1]; substrate 3-Methylphenanthrene): 65.0 ± 4.1 pmol/min/mg microsomal protein
- Vmax, formation of Dihydro-3-methylphenanthrene-diol RT = 4.42 min ([1]; substrate 3-Methylphenanthrene): 12.8 ± 0.8 pmol/min/mg microsomal protein
- Vmax, formation of 3-(Hydroxymethyl)-phenanthrene RT = 5.62 min ([2]; substrate 3-Methylphenanthrene): 2593 ± 305 pmol/min/mg microsomal protein
- Vmax, formation of 3-Methylphennathrol RT = 6.98 min ([2]; substrate 3-Methylphenanthrene): 82.6 ± 53.8 pmol/min/mg microsomal protein
- Vmax, formation of Dihydro-3-methylphenanthrene-diol RT = 4.25 min ([2]; substrate 3-Methylphenanthrene): 92.3 ± 25.1 pmol/min/mg microsomal protein
- Vmax, formation of Dihydro-3-methylphenanthrene-diol RT = 4.42 min ([2]; substrate 3-Methylphenanthrene): 20.4 ± 1.7 pmol/min/mg microsomal protein
- His + revertant colonies TA98 without S9-mix ([3]; 2 µg/plate): 16±3
- His + revertant colonies TA98 without S9-mix ([3]; 4 µg/plate): 17±4
- His + revertant colonies TA98 without S9-mix ([3]; 10 µg/plate): 14±1
- His + revertant colonies TA98 without S9-mix ([3]; 20 µg/plate): 13±2
- His + revertant colonies TA98 without S9-mix ([3]; 40 µg/plate): 9±4
- Cytotoxicity at the test doses ([3]; TA98, absence of S9 mix): showed cytotoxicity
- Increase in the number of revertants compared to the concurrent solvent control [3]: 2.2 fold
- Mutagenicity (conclusion) [3]: non-mutagenic
- Bacterial background lawn ([3]; TA98 without S9-mix, 40 µg/plate): S
- His + revertant colonies TA100 without S9-mix ([4]; 2 µg/plate): 112±14
- His + revertant colonies TA100 without S9-mix ([4]; 4 µg/plate): 112±9
- His + revertant colonies TA100 without S9-mix ([4]; 10 µg/plate): 119±11
- His + revertant colonies TA100 without S9-mix ([4]; 20 µg/plate): 83±34
- His + revertant colonies TA100 without S9-mix ([4]; 40 µg/plate): 75±4
- Cytotoxicity at the test doses [4]: showed cytotoxicity
- Increase in the number of revertants compared to the concurrent solvent control [4]: no increased response was found
- Mutagenicity (conclusion) [4]: non-mutagenic
- Tumor-initiating activity (mouse skin): neither phenanthrene nor its monomethylated analogs
